Reference: ChEMBL document CHEMBL1124908, “Synthesis and antiviral activity of 3'-deoxy-3'-C-hydroxymethyl nucleosides” (J Med Chem, 1990)
Converted amounts (≈) assume the structure as drawn.

How the values were obtained:
MRC5 = test: Inhibitory concentration which is active against Varicella zoster virus (VZV) in MRC-5 cells; type: functional, cell-based; settings: Homo sapiens
CV-1 = test: Inhibitory concentration which is active against Varicella zoster virus (VZV) in CV-1 cells; type: functional, cell-based, Cercopithecidae; settings: Chlorocebus aethiops
Human alphaherpesvirus 3 [1] = test: Anti-viral activity which is required for the inhibition of VZV (Varicella zoster virus ); type: functional, organism-based
Human alphaherpesvirus 3 [2] = test: Minimum inhibitory concentration which is active against Varicella zoster virus (VZV); value ranges from 0.0002-0.003 ug/mL; type: functional
Human alphaherpesvirus 1 = test: Minimum inhibitory concentration which is active against herpes simplex virus type-1 (HSV-1); value ranges from 0.007-0.01 ug/mL; type: functional

`O=c1[nH]c(=O)n(C2O[C@H](CO)[C@H](CO)[C@H]2O)cc1/C=C/Br` (stereo not given in full) gave an IC50 (MRC5) of 15300 ng/mL (≈ 42.1 µM) and an IC50 (CV-1) of 4400 ng/mL (≈ 12.1 µM).
`O=c1[nH]c(=O)n([C@H]2C[C@H](O)[C@@H](CO)O2)cc1/C=C/Br` [BRIVUDINE] was tested, and the IC50 (Human alphaherpesvirus 3 [1]) was 2.4 ng/mL (≈ 0.0072 µM), the MIC (Human alphaherpesvirus 3 [2]) was 0.2 ng/mL (≈ 0.0006 µM) and the MIC (Human alphaherpesvirus 1) was 7 ng/mL (≈ 0.021 µM).
